Source: patent US20260207788A1, “HEAVY ISOTOPE 3-BP MOLECULES, COMPOSITIONS, AND TREATMENTS” (KODISCOVERY, LLC, priority 2022, published 2026)
Read-outs that look alike come from different tables or passages of the source.

Legend:
Format in all cases: cell-based
Panc-2 cells [1] = assay: Imaging of morphology of treated panc-2 cells
Panc-2 cells [2] = assay: ATP assay (cell titer Glo2.0), ATP generation in panc-2 cells; settings: 40 μM; for cells killed in terms of ATP generation: time not given
Description: (§1) In current study we have tested anti-tumor potency of 7, 3-BP analogues employing MTS and ATP assay. The percent viability of Pan-2 cells was determined in presence of graded concentration of 3BP analogues 0, 1, 2, 3, 4, 5, 6 & 7.
For ATP assay panc2 cells (2×10^3/in 100 ul media) were seeded in each well of 96 well luminescence plate (Corning, USA) for 12 hours in media described above. Cells were treated with KAT 0, 5, 20, 40, 80, 100 for 1, 2, 4, 8 hours. In separate experiments, cells were treated with KAT 40, 60 μM for 15, 30 & 60 min. At the end of each treatment, 100 ul ATP assay reagent cell titer Glo2.0 (Promega, USA) was added in each well, shacked on a rotating shaker for 2 mins, incubated at room temperature for 10 mins in dark and luminescence was measured with BIOTEK synergy HT.

Panc-2 cells [3] = assay: MTS assay, percent viability of Panc-2 cells; settings: for cell death: time not given; for viability at 40 µM / viability at 80 µM / viability at 100 µM: read-out: percent viability of Panc-2 cells
Description: as §1
Panc2 cells were seeded in either 6 well plate (6-6.5×10^4 cells/well/2 ml media) or in 12 well plate (3-3.5×10^4/1 ml media) or in 96 well plate ([…] /well/100 ul) in RPMI 1640 with 10% FBS, 0.5% antibiotic media for about 12 hours, in CO2 cell culture incubator at 37 °C. The cells were treated initially with KAT 0, 5, 20, 40, 80 and 100 uM for 1, 2, 4, 8 hours and latter in separate experiments with 40 and 60 µM for 15, 30, 1 hour. For each treatment KAT was added in a volume maximum 10 ul. For control same amount of KAT buffer was used. At the end of each time point treatment MTS reagent (Cell titer 96 aqueous one solution, Promega, USA) was added to each well according to the manufacturer instruction and incubated for approx. 2 hours. After that 100 ul from each well was transferred to 96 well plate (quartiles for each treatment) and measured absorbance at 490 nm with BIOTEK synergy HT. For 96 well plate reagent was added directly to each well, incubated for 2 hours and measured absorbance at 490 nm.

Panc-2 cells [4] = assay: MTS assay, percent viability of Panc-2 cells; settings: 40 μM; for cell death (cells killed) in terms of MTT: after 8 hours; for cells killed in terms of MTT: time not given

Row | SMILES | cell morphology (Panc-2 cells [1]; 40 μM, after 8 hours) | ATP generation (Panc-2 cells [2]; 1 hour treatment) | ATP generation (Panc-2 cells [2]; after 8 hours) | cell death (cells killed) in terms of ATP generation (Panc-2 cells [2]; after 8 hours) | cells killed (Panc-2 cells [3]; 80 μM, 1 hour treatment) | viability at 40 µM (Panc-2 cells [3]; 1 h) | viability at 40 µM (Panc-2 cells [3]; 8 h) | cell death (cells killed) in terms of MTT (Panc-2 cells [4]) | cells killed in terms of ATP generation (Panc-2 cells [2]) | cells killed in terms of MTT (Panc-2 cells [4]) | also measured
1 | O=C(CBr)[13C](=O)O [Molecule 1] | rounding and membrane blabbing | 57% | 7% | 93% | 79% | 54% | 30% | 70% | – | – | cell death (cells killed) (Panc-2 cells [3]; 80 μM, 8 hours treatment): 96%; cell death (Panc-2 cells [3]; 80 and 100 uM): 95-97%
2 | OC(=[18O])C(=[18O])CBr [Molecule 5] | rounding and membrane blabbing | about 69% | about 26% | – | – | ~48% | ~19% | – | about 74% | about 81% | viability at 80 µM (Panc-2 cells [3]; 1 h): ~6%; viability at 100 µM (Panc-2 cells [3]): ~2%
3 | O=C(O)C(=O)[13CH2]Br [Molecule 3] | rounding and membrane blabbing | about 80% | about 66% | – | ~88% | ~62% | ~46% | – | about 34% | about 54% | viability at 100 µM (Panc-2 cells [3]; 1 h): ~5%
4 | O=C(O)C(=O)CBr [Molecule 7, 3-Bromopyruvate, reference compound] | rounding and membrane blabbing | 79% | 64% | about 74% | – | – | – | about 43% | – | – | percent viability of Panc-2 cells (Panc-2 cells [3]; 40 μM, 1 hour treatment): about 67%; percent viability of Panc-2 cells (Panc-2 cells [3]; 40 μM, 8 hours treatment): about 46%; percent viability of Panc-2 cells (Panc-2 cells [3]; 80 μM, 1 hour treatment): about 10%; percent viability of Panc-2 cells (Panc-2 cells [3]; 100 μM, 1 hour treatment): about 4%
5 | O=[13C](O)[13C](=O)[13CH2]Br [Molecule 6] | rounding and membrane blabbing | 73% | 26% | about 74% | – | ~66% | ~57% | about 43% | – | – | viability at 80 µM (Panc-2 cells [3]; 1 h): ~32%; viability at 100 µM (Panc-2 cells [3]; 1 h): ~28%
6 | O=C(O)C(=O)CBr [Molecule 0, 3-Bromopyruvate, reference compound] | – | 80% | 35% | – | about 97% | – | – | – | – | – | cell morphology (Panc-2 cells [1]; 40, 80 and 100 μM): change in morphology; cell death in Panc-2 cells (Panc-2 cells [3]; 40 μM, 1 hour treatment): 58%; percent viability of Panc-2 cells (Panc-2 cells [3]; 40 μM, 8 hours treatment): 24%; cell death (cells killed) (Panc-2 cells [3]; 80 μM, 8 hours treatment): 100%
7 | O=C(O)[13C](=O)CBr [Molecule 2] | – | 83% | 68% | – | – | ~52% | ~60% | – | 32% | 40% | cell morphology (Panc-2 cells [1]; 80 μM, time not given): rounding and membrane blabbing; cells killed (Panc-2 cells [3]; 80 μM, 4 hour treatment): about 99%; viability at 100 µM (Panc-2 cells [3]): ~0%
8 | [2H]C([2H])(Br)C(=O)C(=O)O [Molecule 4] | – | 91% | about 76% | – | about 99% | ~58% | ~60% | – | 32-40% | 32-40% | cell morphology (Panc-2 cells [1]; 80 μM, after 2 hours): rounding and membrane blabbing; cell death (Panc-2 cells [3]; 100 μM): about 100%
